{"source": "paper PMC9764067", "about": "(Acta Pharmaceutica Sinica. B, 2022)", "key": {"[1]": {"tested_on": "EBOVpp", "format": "cell-based, Ebola virus"}, "[2]": {"tested_on": "EBOV-GP/HIV-luc", "format": "cell-based, Ebola virus"}, "[3]": {"tested_on": "cellular content of cholesterol", "format": "cell-based"}}, "data": [{"molecule": "O=C1Nc2ccc(Cl)cc2[C@@](C#CC2CC2)(C(F)(F)F)O1", "note": "[efavirenz]", "values": [{"measurement": "inhibitory effect by time of drug addition", "setting": "[1]", "result": "maintained its inhibitory effect up to 8 hpi"}]}, {"molecule": "heparin", "values": [{"measurement": "effect on uptake of viral genomic RNA (virus binding to the cell)", "setting": "[2]", "result": "marked inhibition"}]}, {"molecule": "CCN(CC)CCO[C@H]1CC[C@@]2(C)C(=CC[C@@H]3[C@@H]2CC[C@]2(C)C(=O)CC[C@@H]32)C1", "note": "[U18666A]", "values": [{"measurement": "cellular content of cholesterol", "setting": "[3]", "result": "cholesterol accumulation"}]}]}
